# Source: patent US7960130B2, “Method for activation of transient receptor potential cation channel, subfamily A, member 1 using acetaldehyde” (Korea University Industry and Academy Cooperation Foundation, priority 2008, dated 2011)
# Entries after “also recorded” stand apart in the source; their conditions may differ.
# Assays:
# ICR mice = test: Acute hindpaw licking/flicking behavioral analysis; details: 10 min
# Protocol: This analysis was performed in accordance with protocols approved by the University Committee on Laboratory Animals. Mice were acclimated for 1 h to the test environment prior to experiments. Drugs dissolved in vehicle (PBS containing 0.5% Tween 80) were injected into mice right hindpaws intradermally.
# TRPV3 = target: T1, TRPV3 (Homo sapiens, UniProt Q8NET8); test: Calcium imaging of TRP transfected cell lines treated with acetaldehyde (TRPV3); assay type: cell-based; details: 1 mM acetaldehyde
# T1 construct: expressed in transfected cells; host or cells: HEK293T (ATCC CRL-11268), pcDNA5/FRT
# T1 sequence (Q8NET8 1-790): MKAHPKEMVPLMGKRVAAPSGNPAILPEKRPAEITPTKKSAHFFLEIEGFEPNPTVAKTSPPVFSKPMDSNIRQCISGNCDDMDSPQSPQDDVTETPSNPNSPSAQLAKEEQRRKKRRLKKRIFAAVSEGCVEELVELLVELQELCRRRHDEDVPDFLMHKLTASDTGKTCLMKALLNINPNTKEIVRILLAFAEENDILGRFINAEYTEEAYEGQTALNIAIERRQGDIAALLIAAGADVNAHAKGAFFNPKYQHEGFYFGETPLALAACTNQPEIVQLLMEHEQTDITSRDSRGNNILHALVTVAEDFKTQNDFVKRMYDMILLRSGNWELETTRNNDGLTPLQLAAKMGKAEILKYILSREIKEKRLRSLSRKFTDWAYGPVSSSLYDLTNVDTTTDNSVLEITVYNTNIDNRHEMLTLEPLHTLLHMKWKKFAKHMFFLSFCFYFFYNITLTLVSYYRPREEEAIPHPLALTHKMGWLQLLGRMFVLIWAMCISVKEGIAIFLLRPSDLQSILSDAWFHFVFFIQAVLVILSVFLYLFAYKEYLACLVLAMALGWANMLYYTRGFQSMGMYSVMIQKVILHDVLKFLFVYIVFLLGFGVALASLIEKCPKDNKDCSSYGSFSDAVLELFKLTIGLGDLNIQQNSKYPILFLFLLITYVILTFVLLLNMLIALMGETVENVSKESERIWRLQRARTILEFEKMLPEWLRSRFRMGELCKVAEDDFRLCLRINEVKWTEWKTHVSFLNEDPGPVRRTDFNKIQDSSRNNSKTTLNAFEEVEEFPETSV
# Excerpt: (§1) HEK293T cell line (ATCC CRL-11268) was transiently transfected with plasmid DNA containing polynucleotide encoding hTRPA1 (SEQ. ID. NO: 1), rTRPV2 (SEQ. ID. NO: 2), rTRPV1 (SEQ. ID. NO: 3), mTRPV4 (SEQ. ID. NO: 4), mTRPA1 (SEQ. ID. NO: 5), hTRPV3 (SEQ. ID. NO: 6) or mTRPM8 (SEQ. ID. NO: 7).
# (§2) Particularly, the HEK293T cell line was transiently transfected with individual TRP channel plasmid (pcDNA3.1 containing polynucleotide encoding hTRPA1, rTRPV2, rTRPV1 or mTRPV4; pcDNA5/FRT containing polynucleotide encoding mTRPA1, hTRPV3 or mTRPM8) 3 μg per 35-mm dish and 600 ng/well of pcDNA3 (Invitrogen Corp., USA; containing green fluorescent protein (GFP) cDNA) using Fugene6 (Roche Diagnostics, USA) according to manufacturer's instruction. The transformed cells were cultured in DMEM/F12 containing 10% FBS and 1% penicillin/streptomycin in a CO2 incubator for 24 hours. The cells were replated onto poly-L-lysine-coated glass coverslips, followed by further culture for 10-24 hours.
# (§3) Particularly, the transfected cell line of Example <4-1> was loaded with Fluo-3AM (5 μM; Sigma Aldrich, USA) in the bath solution (140 mM NaCl, 5 mM KCl, 2 mM CaCl2, 1 mM MgCl2, 10 mM HEPES; adjusted to pH 7.4 with NaOH) containing 0.02% pluronic acid (Invitrogen, USA). […]
# mTRPA1 = target: T2, mTRPA1 (Mus musculus, UniProt Q8BLA8); test: Fluo-3 calcium imaging of mTRPA1-transfected HEK293T cells; assay type: cell-based
# T2 construct: expressed in transfected cells; host or cells: HEK293T (ATCC CRL-11268), pcDNA5/FRT
# T2 sequence (Q8BLA8 whole entry): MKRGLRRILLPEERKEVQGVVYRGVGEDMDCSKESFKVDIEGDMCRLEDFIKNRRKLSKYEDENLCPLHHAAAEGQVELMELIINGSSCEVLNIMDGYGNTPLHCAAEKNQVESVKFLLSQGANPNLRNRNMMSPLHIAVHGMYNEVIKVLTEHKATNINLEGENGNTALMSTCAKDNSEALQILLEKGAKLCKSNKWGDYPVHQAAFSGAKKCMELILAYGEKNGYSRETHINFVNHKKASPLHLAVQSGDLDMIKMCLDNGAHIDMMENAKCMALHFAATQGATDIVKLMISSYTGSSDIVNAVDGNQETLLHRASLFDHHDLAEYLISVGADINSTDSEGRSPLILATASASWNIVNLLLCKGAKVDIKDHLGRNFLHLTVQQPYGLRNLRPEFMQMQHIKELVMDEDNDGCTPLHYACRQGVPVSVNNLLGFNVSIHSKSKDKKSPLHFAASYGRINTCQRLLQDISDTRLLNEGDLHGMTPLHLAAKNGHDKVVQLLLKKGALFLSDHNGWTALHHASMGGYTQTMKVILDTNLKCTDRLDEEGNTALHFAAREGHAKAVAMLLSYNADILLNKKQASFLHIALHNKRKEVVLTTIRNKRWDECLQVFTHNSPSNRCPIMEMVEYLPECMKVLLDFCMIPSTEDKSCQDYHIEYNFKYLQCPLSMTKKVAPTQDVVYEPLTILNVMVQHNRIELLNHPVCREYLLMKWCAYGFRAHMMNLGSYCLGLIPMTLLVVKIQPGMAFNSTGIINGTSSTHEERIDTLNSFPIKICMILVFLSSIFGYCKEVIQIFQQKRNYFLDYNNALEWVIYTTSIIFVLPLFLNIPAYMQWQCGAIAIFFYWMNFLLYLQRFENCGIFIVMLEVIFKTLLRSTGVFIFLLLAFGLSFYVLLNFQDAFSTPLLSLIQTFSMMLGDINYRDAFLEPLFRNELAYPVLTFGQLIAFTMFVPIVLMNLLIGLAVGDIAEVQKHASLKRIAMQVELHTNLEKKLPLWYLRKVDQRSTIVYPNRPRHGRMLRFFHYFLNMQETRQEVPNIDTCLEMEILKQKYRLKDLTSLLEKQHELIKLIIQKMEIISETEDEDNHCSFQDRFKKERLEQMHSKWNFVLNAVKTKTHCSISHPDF
# Protocol: as §2
# (§4) Calcium imaging was performed with a confocal microscope (LSM5 Pascal, Carl Zeiss, Germany), and time-lapse images (488 nm excitation/514 nm emission) were collected every 3 seconds using Carl Zeiss ratio tool software (Carl Zeiss, Germany).
# (§5) Stock solutions were made using water or ethanol, and were diluted with test solutions before use.
# TRPA1 = test: Calcium imaging of TRP transfected cell lines treated with acetaldehyde (TRPA1); assay type: cell-based; details: 1 mM acetaldehyde
# Excerpt: as §1, §2, §3
# TRPV1 = target: T3, TRPV1 (Rattus norvegicus, UniProt O35433); test: Calcium imaging of TRP transfected cell lines treated with acetaldehyde (TRPV1); assay type: cell-based; details: 1 mM acetaldehyde
# T3 construct: expressed in transfected cells; host or cells: HEK293T (ATCC CRL-11268), pcDNA3.1
# T3 sequence (O35433 whole entry): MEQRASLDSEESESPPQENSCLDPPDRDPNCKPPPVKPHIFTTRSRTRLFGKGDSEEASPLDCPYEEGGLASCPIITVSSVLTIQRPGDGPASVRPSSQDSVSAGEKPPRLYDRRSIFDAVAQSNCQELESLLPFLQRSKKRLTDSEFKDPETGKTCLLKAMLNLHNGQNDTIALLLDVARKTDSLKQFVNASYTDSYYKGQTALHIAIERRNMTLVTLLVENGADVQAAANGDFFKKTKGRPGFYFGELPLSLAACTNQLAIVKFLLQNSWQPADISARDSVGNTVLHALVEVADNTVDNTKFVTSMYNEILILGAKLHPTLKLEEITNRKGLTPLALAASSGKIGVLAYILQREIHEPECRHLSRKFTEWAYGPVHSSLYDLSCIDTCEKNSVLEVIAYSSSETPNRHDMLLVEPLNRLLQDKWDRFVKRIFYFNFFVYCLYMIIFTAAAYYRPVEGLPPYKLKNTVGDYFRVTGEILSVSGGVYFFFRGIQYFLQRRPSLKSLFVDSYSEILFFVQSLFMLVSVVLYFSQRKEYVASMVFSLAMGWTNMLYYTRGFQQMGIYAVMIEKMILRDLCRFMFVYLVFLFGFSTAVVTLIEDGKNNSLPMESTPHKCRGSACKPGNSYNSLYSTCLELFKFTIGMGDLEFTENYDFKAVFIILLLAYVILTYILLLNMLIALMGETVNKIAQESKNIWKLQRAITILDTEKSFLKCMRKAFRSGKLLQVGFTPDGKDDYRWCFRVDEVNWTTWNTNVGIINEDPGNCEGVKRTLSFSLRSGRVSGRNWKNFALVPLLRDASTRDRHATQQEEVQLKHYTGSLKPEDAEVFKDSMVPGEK
# Excerpt: as §1, §2, §3
# hTRPA1 = target: T4, hTRPA1 (Homo sapiens, UniProt O75762); test: Fluo-3 calcium imaging of hTRPA1-transfected HEK293T cells; assay type: cell-based
# T4 construct: expressed in transfected cells; host or cells: HEK293T (ATCC CRL-11268), pcDNA3.1
# T4 sequence (O75762 whole entry): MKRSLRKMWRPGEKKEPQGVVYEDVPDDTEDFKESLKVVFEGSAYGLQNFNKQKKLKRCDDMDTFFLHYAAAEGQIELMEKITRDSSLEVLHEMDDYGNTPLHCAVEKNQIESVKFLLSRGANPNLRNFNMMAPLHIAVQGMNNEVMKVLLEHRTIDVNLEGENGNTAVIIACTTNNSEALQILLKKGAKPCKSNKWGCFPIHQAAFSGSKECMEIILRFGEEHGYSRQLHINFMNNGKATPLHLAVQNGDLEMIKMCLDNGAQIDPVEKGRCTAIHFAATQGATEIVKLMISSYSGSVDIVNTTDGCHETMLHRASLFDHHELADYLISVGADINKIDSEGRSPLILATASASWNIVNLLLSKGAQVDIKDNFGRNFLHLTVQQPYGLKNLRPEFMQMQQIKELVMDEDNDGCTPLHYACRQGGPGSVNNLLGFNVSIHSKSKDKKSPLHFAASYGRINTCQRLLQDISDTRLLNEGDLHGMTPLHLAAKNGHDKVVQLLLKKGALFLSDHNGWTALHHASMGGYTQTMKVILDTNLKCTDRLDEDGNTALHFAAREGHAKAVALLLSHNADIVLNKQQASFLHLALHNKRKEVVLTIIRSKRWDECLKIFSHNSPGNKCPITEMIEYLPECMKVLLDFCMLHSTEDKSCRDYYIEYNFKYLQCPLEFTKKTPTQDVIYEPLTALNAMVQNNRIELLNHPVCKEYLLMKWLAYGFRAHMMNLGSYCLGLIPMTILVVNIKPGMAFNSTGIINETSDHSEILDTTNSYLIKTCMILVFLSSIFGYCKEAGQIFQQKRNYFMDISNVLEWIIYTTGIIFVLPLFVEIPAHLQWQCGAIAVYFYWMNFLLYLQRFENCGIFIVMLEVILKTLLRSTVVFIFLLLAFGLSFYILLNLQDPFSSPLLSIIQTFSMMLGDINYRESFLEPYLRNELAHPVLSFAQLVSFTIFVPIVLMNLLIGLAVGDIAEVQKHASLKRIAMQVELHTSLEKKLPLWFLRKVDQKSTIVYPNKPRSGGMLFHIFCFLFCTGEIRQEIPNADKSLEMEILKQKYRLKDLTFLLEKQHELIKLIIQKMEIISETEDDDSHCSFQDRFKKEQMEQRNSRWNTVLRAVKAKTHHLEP
# Protocol: as §2, §5, §4, §5
# TRPV4 = target: T5, TRPV4 (Mus musculus, UniProt Q9EPK8); test: Calcium imaging of TRP transfected cell lines treated with acetaldehyde (TRPV4); assay type: cell-based; details: 1 mM acetaldehyde
# T5 construct: expressed in transfected cells; host or cells: HEK293T (ATCC CRL-11268), pcDNA3.1
# T5 sequence (Q9EPK8 whole entry): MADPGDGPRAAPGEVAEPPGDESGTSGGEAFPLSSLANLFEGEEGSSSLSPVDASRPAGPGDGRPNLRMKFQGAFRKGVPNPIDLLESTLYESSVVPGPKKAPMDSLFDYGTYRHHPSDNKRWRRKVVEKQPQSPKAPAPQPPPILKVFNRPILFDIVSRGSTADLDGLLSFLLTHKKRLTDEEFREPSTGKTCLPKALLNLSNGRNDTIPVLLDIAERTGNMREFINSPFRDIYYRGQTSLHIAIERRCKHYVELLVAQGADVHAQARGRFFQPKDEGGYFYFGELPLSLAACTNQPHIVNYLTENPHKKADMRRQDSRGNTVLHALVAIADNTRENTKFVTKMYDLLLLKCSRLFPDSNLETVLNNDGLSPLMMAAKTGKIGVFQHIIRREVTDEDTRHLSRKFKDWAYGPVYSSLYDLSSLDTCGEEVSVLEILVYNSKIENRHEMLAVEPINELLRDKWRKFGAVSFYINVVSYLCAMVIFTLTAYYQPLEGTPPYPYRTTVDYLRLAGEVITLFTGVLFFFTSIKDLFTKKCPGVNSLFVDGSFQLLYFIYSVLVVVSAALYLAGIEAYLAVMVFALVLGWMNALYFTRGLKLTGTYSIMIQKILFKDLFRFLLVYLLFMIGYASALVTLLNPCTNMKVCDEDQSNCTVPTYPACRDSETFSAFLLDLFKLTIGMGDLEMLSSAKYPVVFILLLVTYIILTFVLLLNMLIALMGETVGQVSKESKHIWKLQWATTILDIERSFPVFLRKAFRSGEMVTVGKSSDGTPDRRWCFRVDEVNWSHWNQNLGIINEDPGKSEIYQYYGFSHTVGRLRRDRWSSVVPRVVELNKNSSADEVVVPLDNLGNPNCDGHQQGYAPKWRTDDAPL
# Excerpt: as §1, §2, §3
# [1] = acetaldehyde 1 to 10^4 μM, Fluo-3 calcium imaging
smiles,measurement,setting,value
CC=O [acetaldehyde],dose dependence of acetaldehyde-induced nociceptive behaviors,"ICR mice; 1 mM, 10 mM, 100 mM acetaldehyde intradermal",increased in a dose-dependent manner
same,acute hindpaw licking/flicking behavior elicited,"ICR mice; intradermal into hindpaw, 10 μl, 100 mM acetaldehyde or 10 mM cinnamaldehyde, n=5",elicited acute licking or flicking behavior
same,activation of TRPV3 by acetaldehyde,TRPV3,only TRPA1 was activated
same,EC50,mTRPA1,1190 µM
same,n of dose-response curve (Hill plot) on mTRPA1,mTRPA1; [1],3.1
same,maximum efficacy in mTRPA1 responses compared with hTRPA1,"mTRPA1; dose-response, calcium imaging",greater maximum efficacy
same,activation of TRPA1 by acetaldehyde,TRPA1,only TRPA1 was activated
same,activation of TRPV1 by acetaldehyde,TRPV1,only TRPA1 was activated
same,EC50,hTRPA1,76.5 µM
same,elevation of intracellular calcium levels in hTRPA1-expressing cells,"hTRPA1; 1 mM acetaldehyde, 300 μM cinnamaldehyde, 10 mM acetic acid, 1% methanol, 1% ethanol",TRPA1-specific responses; also recorded: responded
same,n of dose-response curve (Hill plot) on hTRPA1,hTRPA1; [1],2.4
same,activation of TRPV4 by acetaldehyde,TRPV4,only TRPA1 was activated
